Legend:
[1] = target: T1, purified human MD-2 receptor (Homo sapiens, UniProt Q9Y6Y9); test: Surface plasmon resonance binding to MD-2
T1 sequence (Q9Y6Y9 19-160): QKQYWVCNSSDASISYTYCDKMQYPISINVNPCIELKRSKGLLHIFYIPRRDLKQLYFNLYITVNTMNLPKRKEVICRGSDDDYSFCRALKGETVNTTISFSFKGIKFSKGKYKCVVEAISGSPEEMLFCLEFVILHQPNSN
Protocol: Surface plasmon resonance (SPR) experiments enable the study of direct interactions between the molecules to be characterized and MD-2.
The binding affinity of the compounds to recombinant MD-2 was determined using a Biacore X100 with an NTA sensor chip (Biacore, GE Healthcare, Uppsala, Sweden). Briefly, 0.5 μM MD-2 (in 50 mM TRIS, 150 mM NaCl, 0.5% Tween 20, pH 7.5) was immobilized onto the sensor chip previously activated with 1 min pulse of 10 mM NiSO4. The first flow cell was used as a reference surface to control nonspecific binding.
Both flow cells were incubated with the analyte (in PBS, 5% DMSO, 5% EtOH, pH 7.5) at a flow rate of 10 μL/min at 25° C. at increasing concentrations. The data were analyzed with Biacore Evaluation software. KD values were calculated by global fitting of the equilibrium binding responses from various concentrations of analytes using a 1:1 Langmuir binding model.

hTLR4 = target: T2, hTLR4 (Homo sapiens, UniProt O00206+Q9Y6Y9); test: HEK-Blue hTLR4 SEAP reporter assay (NF-κB/AP-1 activation); type: cell-based; conditions: HEK-Blue hTLR4 cells, 16-18 hours
T2 construct: host or cells: HEK-Blue hTLR4 (HEK cells)
Protocol: HEK-Blue™ hTLR4 (FIG. 1A) and HEK-Blue™ Null2 (FIG. 1B) cells were treated with the indicated concentrations of compounds FP11, FP111, and with LPS (100 ng/mL) and incubated for 16-18 hours. Results were normalized to stimulation with LPS alone, and are expressed as mean of percentage ±ES. of at least three independent experiments.
HEK-Blue™ hTLR4 cells were treated with increasing concentrations of compound FP11 and of LPS and incubated for 16-18 hours. Results were normalized to maximum activation of the reporter produced by LPS (FIG. 2A) and to maximum activation of the reporter produced by the compound itself (FIG. 2B). Data were fitted to a sigmoidal four-parameter logistic equation in order to determine IC50 values, and expressed as mean of percentage ±ES of at least three independent experiments.
HEK-Blue™ hTLR4 cells are HEK cells transfected so as to stably express human receptors hTLR4, hMD-2, and hCD14 for endotoxin recognition. In addition, said cells have a reporter gene encoding for a secreted alkaline phosphatase (SEAP) μlaced under the control of specific transcription factors (NF-κB and AP-1) activated by the TLR4 signaling pathway. Therefore, the presence of LPS or of an agonist of TLR4 causes receptor dimerization, activation of the signaling pathway and of transcription factors NF-κB and AP-1, and finally SEAP production and secretion into the culture medium. SEAP levels can be subsequently quantitated by incubating the medium with compound p-nitrophenylphosphate (pNPP) and monitoring with a spectrophotometer the formation of p-nitrophenol chromogenic product at 405 nm.
HEK-Blue™ hTLR4 cells (InvivoGen) were cultured according to manufacturer's instruction. […]
Cells were detached using a cell scraper, counted and seeded in a 96-well multiwell plate at a density of 4×10^4 cells per well. […]
The wells' optical density was determined using a microplate reader set at 405 nm.
The results were normalized with positive control (LPS alone) and expressed as a mean of percentage ±SEM of at least three independent experiments.

HEK-Blue™ hTLR4 cells = test: MTT cell viability assay; type: cell-based; conditions: 25 and 50 μM, 16-18 hours
Protocol: HEK-Blue™ hTLR4 cells were treated with the higher concentrations used in the preceding assays and incubated for 16-18 hours. Results were normalized to PBS addition and are expressed as mean of percentage ±ES. of at least three independent experiments.
Finally, compound FP11 cytotoxicity was assessed by MTT (3-(4,5-dimethylthiazol-2-yl)-2,5-diphenyltetrazolium bromide) viability assay. HEK-Blue™ hTLR4 cells were treated with the highest compound concentrations used in the preceding assay (25 and 50 μM).
HEK-Blue™ hTLR4 cells were grown in DMEM supplemented with 10% FBS, 2 mM glutamine and antibiotics.
Cells were seeded in 100 μL of DMEM without Phenol Red at a density of 4×10^4 cells per well and incubated overnight (37° C., 5% CO2 , 95% humidity).
Cells were treated with the higher dose of compound used in the previous experiments and incubated overnight. MTT solution (5 mg/mL in PBS) was added to each well, and after 3 h incubation, 0.1 N HCl in 2-propanol solution was used to dissolve formazan crystals.
Formazan concentration was determined by measuring the absorbance at 570 nm.
The results were normalized with untreated control (PBS) and expressed as the mean of percentage ±SEM of three independent experiments.

T2 sequence (O00206 24-839): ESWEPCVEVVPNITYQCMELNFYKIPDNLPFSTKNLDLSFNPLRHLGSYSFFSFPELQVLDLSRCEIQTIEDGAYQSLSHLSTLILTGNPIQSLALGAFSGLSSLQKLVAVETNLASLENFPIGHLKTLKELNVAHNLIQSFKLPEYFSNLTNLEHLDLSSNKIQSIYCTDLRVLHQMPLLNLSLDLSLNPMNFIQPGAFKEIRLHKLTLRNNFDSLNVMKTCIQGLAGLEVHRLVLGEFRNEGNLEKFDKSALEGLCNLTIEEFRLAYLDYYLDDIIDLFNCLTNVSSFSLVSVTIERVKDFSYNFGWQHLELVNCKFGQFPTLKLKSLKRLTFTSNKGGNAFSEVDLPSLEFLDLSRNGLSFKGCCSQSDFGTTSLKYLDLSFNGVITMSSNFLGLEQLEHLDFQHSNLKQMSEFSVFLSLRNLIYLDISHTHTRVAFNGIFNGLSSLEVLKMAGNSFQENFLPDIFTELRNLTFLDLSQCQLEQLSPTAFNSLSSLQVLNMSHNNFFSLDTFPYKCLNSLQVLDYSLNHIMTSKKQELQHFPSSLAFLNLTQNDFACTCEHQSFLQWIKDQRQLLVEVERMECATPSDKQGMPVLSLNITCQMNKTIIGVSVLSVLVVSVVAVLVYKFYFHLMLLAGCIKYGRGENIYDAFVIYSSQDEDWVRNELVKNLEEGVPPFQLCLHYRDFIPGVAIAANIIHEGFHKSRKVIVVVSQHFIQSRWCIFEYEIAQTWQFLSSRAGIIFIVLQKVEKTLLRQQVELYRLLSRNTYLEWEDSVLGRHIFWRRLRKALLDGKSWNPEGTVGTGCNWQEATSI
T2 sequence (Q9Y6Y9 17-160 limits assumed): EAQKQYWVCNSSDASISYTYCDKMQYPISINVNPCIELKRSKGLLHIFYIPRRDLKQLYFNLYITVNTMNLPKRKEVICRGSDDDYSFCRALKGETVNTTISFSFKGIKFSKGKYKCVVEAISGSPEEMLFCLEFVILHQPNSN

CCCCCCCCCCCCCC(=O)NC1C(OC(=O)CCCCCCCCCCCCC)[C@H](OC(=O)CCCCCCCCCCCCC)C(CO)O[C@H]1OP(=O)(O)O (stereo partly drawn) [FP11, 1-O-Phosphoryl-2-deoxy-4-O-tetradecanoyl 3-O-tetradecanoyl-2-tetradecanoylamino-α-D-glucopiranoside]
direct binding to MD-2 (SPR) [1]: directly binds the MD-2 hydrophobic pocket | Kd ([1]; SPR, 1:1 Langmuir binding model, 25° C.): 6.5 µM | concentrations at which activation of NF-κB and AP-1 is induced (hTLR4; SEAP reporter): > 5 µM | EC50 (hTLR4; dose-response curve): 12.3 µM | cytotoxicity (MTT viability) (HEK-Blue™ hTLR4 cells): not toxic at the concentrations assayed

— patent publication US20230037862A1, “SYNTHETIC AGONISTS OF TLR4 RECEPTOR” (UNIVERSITÀ DEGLO STUDI DI MILANO - BICOCCA, priority 2017, published 2023)
